# In patent publication US12516058B2, “Small-molecule compounds for controlling endosomal toll-like receptors and therapeutic agent for autoimmune diseases using same” (priority 2020, dated 2026):
# Entries after “also recorded” stand apart in the source; their conditions may differ.
# Molecular target: T1, TLR3 (Mus musculus, UniProt Q99MB1)
# T1 construct: RAW 264.7 cells were pretreated with each candidate compound for 1 hour; endogenous in cells; host or cells: RAW 264.7
# T1 sequence (Q99MB1 26-905): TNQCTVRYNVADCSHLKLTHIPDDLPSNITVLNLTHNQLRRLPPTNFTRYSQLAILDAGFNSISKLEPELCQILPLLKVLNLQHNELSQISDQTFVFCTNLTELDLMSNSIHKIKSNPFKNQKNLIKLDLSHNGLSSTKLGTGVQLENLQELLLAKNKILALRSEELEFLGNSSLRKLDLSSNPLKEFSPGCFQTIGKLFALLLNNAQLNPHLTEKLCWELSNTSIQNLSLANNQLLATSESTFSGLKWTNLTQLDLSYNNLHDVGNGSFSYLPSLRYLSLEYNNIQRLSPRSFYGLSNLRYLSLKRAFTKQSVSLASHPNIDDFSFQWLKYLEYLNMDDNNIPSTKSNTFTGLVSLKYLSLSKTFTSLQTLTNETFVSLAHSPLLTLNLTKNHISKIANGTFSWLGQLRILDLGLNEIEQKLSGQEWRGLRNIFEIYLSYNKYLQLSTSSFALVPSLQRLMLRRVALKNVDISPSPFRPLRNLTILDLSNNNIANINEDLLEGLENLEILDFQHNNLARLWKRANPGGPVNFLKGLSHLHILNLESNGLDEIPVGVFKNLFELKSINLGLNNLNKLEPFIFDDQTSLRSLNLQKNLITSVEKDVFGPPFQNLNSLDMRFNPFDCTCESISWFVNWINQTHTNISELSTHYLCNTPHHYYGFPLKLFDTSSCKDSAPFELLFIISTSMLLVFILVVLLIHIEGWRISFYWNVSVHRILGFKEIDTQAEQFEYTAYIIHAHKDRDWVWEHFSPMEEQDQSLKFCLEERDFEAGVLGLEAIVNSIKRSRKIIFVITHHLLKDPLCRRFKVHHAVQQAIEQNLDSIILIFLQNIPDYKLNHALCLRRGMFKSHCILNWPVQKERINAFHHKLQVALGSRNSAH
# Assay: TNF-α secretion ELISA after TLR3 agonist poly I:C in RAW 264.7 cells
# Assay type: cell-based
# Conditions: SK01, SK16; RAW 264.7 cells, poly I:C 24 h
# Method: In order to determine the inhibitory activities of the test-ligand, RAW 264.7 cells were pretreated with each candidate compound for 1 hour, then treated with Pam3CSK4 (synthetic triacyl lipopeptide; TLR1/2, Invitrogen), FSL-1 (synthetic diacyl lipoprotein, TLR2/6, 100 ng/ml), lipopolysaccharide (LPS, TLR4, Sigma Aldrich), imiquimod (IMQ, TLR7, Invitrogen), and ODN2395 (type C CpG repeat motif DNA oligo(5′-[…]-3), TLR9, Bioneer) ligand for 4 hours, and treated with poly I:C (I:C repeat motif double-stranded RNA, TLR3, Invitrogen) and TL8-506 (TLR8, Invitrogen) showing delayed reactivity for 24 hours. After activation of TLR, the supernatant was diluted in an appropriate ratio so as to measure within the standard dose range, transferred to a pre-coated 96-well assay plate, and then treated with mouse TNF-alpha secretion level in accordance with the manufacturer's instructions using a mouse-TNF-alpha ELISA-kit (Invitrogen).
# In order to determine the inhibitory activities of SK41, SK50, SK58 and SK64 on various TLR signaling pathways, RAW 264.7 cells were cultured along with each compound and then stimulated with different TLR agonists. The TLR agonists used herein were Pam3CSK4 (TLR1/2), FSL-1 (TLR2/6), LPS (TLR4) and FLA-ST (TLR5) as cell surface TLRs, and poly I:C (TLR3) and TL8-506 (TLR8) as endosomal TLRs.
row,SMILES,inhibition of the function of endosomal TLR3
1,"Cc1c(C)n(CCN(C)C)c2nc3c(c(N)c12)CCCCC3 [SK01, 1-(2-(dimethylamino)ethyl)-2,3-dimethyl-1,5,6,7,8,9-hexahydrocyclohepta[b]pyrrolo[3,2-e]pyridin-4-amine]",specifically inhibit
2,"Cc1c(C)n(CCCN(C)C)c2nc3c(c(N)c12)CCCCC3 [SK16, 1-(3-(dimethylamino)propyl)-2,3-dimethyl-1,5,6,7,8,9-hexahydrocyclohepta[b]pyrrolo[3,2-e]pyridin-4-amine]",specifically inhibit

# Same assay, conditions: SK41, SK50, SK58, SK64; poly I:C
row,SMILES,inhibitory activity against endosomal TLR3 (TNF-α secretion)
1,"Cc1cc2c(N)c3c(nc2n1CCCN(C)C)CCCCCC3 [SK41, 1-(3-(dimethylamino)propyl)-2-methyl-5,6,7,8,9,10-hexahydro-1H-cycloocta[b]pyrrolo[3,2-e]pyridin-4-amine]",strong inhibitory activity; also recorded: specific inhibitory activities
2,"COc1ccc2c(c1)c1c(N)c3c(nc1n2CCCN(C)C)CCCC3 [SK50, 6-(3-(dimethylamino)propyl)-9-methoxy-2,3,4,6-tetrahydro-1H-indolo[2,3-b]quinolin-11-amine]",strong inhibitory activity; also recorded: specific inhibitory activities
3,"Cc1ccc2c(c1)c1c(N)c3c(nc1n2CCCN(C)C)CCCC3 [SK58, 6-(3-(dimethylamino)propyl)-9-methyl-2,3,4,6-tetrahydro-1H-indolo[2,3-b]quinolin-11-amine]",strong inhibitory activity; also recorded: specific inhibitory activities
4,"COC(=O)c1ccc2c(c1)c1c(N)c3c(nc1n2CCCN(C)C)CCCC3 [SK64, Methyl 11-amino-6-(3-(dimethylamino)propyl)-2,3,4,6-tetrahydro-1H-indolo[2,3-b]quinolin-9-carboxylate]",strong inhibitory activity; also recorded: specific inhibitory activities
